The record followed here is patent US9029359B2, “Heteroaryl Btk inhibitors” (Biogen Idec MA, Inc., priority 2009, dated 2015).

The target of the assay is T1, BTK (Homo sapiens, UniProt Q06187).
T1 construct: purchased Upstate 14-552
Briefly: In vitro BTK kinase assay: BTK-POLYGAT-LS ASSAY. It counts as biochemical. Particulars: ATP 10 uM. In outline:
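BTK phosphorylation of polyGAT (100 nM final) with ATP at 10 μM final, 10 mM Tris-HCl pH 7.5 kinase buffer, quenched by EDTA after 30 min. Potency given as IC50.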

T1 sequence (Q06187 whole entry): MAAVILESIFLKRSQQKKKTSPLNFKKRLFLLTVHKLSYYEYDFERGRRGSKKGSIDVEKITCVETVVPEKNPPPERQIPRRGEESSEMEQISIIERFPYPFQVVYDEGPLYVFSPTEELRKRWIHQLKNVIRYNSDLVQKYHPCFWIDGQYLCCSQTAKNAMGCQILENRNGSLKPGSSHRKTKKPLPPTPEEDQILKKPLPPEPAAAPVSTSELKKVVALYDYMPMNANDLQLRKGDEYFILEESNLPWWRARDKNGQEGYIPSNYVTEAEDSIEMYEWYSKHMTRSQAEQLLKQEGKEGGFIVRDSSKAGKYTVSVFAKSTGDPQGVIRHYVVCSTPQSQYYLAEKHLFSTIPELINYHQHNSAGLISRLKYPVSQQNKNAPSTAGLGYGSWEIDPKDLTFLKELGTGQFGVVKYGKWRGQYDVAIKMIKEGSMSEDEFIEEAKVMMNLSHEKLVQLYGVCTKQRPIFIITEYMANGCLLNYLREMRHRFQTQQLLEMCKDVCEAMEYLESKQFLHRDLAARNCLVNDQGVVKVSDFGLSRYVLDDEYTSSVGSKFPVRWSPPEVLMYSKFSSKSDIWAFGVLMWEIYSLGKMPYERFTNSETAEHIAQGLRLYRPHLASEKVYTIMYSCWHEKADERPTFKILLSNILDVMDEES

What is called IC50 is the concentration that gives 50% inhibition. Read a high IC50 as weaker potency in that assay. Compound `C[C@@H](O)[C@@H](Nc1cc(F)cc(Cl)c1)C(=O)N[C@@H]1CCCN(c2ncnc3[nH]ncc23)C1` [Example 171] had an IC50 of less than 0.1 µM.
As for `CCCN(CC)S(=O)(=O)c1ccccc1NCC(=O)N[C@@H]1CCCN(c2ncnc3[nH]ncc23)C1` [Example 172], the figure is less than 0.1 µM.
`O=C(CNc1ccccc1S(=O)(=O)c1ccccc1)N[C@@H]1CCCN(c2ncnc3[nH]ccc23)C1` [Example 173] registered an IC50 of less than 0.1 µM.
In turn, `C[C@H](O)[C@@H](Nc1cc(F)cc(Cl)c1)C(=O)N[C@@H]1CCCN(c2ncnc3[nH]ncc23)C1` [Example 174] came in with an IC50 of less than 0.1 µM.
As for `O=C(CNc1ccccc1S(=O)(=O)N1CCC(F)(F)CC1)N[C@@H]1CCCN(c2ncnc3[nH]ncc23)C1` [Example 176], the figure is less than 0.1 µM; as for `CCC[C@@H](Nc1cc(Cl)cc(Cl)c1)C(=O)N[C@@H]1CCCN(c2ncnc3[nH]ccc23)C1` [Example 178], less than 0.1 µM.
`CC(C)CN(CC(C)C)S(=O)(=O)c1ccccc1NCC(=O)N[C@@H]1CCCN(c2ncnc3[nH]ccc23)C1` [Example 179] gave an IC50 of less than 0.1 µM.
As for `CC[C@@H](C)[C@@H](Nc1cc(F)cc(Cl)c1)C(=O)N[C@@H]1CCCN(c2ncnc3[nH]ncc23)C1` [Example 180], the figure is less than 0.1 µM; as for `C[C@H](O)[C@@H](Nc1cc(Cl)cc(Cl)c1)C(=O)N[C@@H]1CCCN(c2ncnc3[nH]ccc23)C1` [Example 181], less than 0.1 µM.
As for `O=C(CNc1ccccc1S(=O)(=O)N1CCCCC1)N[C@@H]1CCCN(c2ncnc3[nH]ccc23)C1` [Example 182], the figure is less than 0.1 µM; as for `O=C(CNc1ccccc1S(=O)(=O)N1CCCCC1)N[C@@H]1CCCN(c2ncnc3[nH]ncc23)C1` [Example 183], less than 0.1 µM; as for `O=C(NC1CCCCN(c2ncnc3[nH]ncc23)C1)[C@H](Nc1cc(F)cc(Cl)c1)C1CC1` (some centres unmarked) [Example 184], less than 0.1 µM.
For the compound `C[C@@H](Nc1cc(F)cc(Cl)c1)C(=O)N[C@@H]1CCCN(c2ncnc3[nH]ncc23)C1` [Example 185], the concentration for half-maximal inhibition (IC50) is less than 0.1 µM.
For `CC(C)CN(CC(C)C)S(=O)(=O)c1ccccc1NCC(=O)N[C@@H]1CCCN(c2ncnc3[nH]ncc23)C1` [Example 186] the value was less than 0.1 µM; for `O=C(CNc1ccccc1S(=O)(=O)c1cccc(C(F)(F)F)c1)N[C@@H]1CCCN(c2ncnc3[nH]ncc23)C1` [Example 187], less than 0.1 µM; for `CC(C)CCSc1ccccc1NCC(=O)N[C@@H]1CCCN(c2ncnc3[nH]ccc23)C1` [Example 188], less than 0.1 µM.
As for `CC1CCCN1S(=O)(=O)c1ccccc1NCC(=O)N[C@@H]1CCCN(c2ncnc3[nH]ncc23)C1` (some centres unmarked) [Example 189], the figure is less than 0.1 µM; as for `CC[C@H](C)[C@@H](Nc1cc(F)cc(Cl)c1)C(=O)N[C@@H]1CCCN(c2ncnc3[nH]ncc23)C1` [Example 192], less than 0.1 µM; as for `CCCC[C@@H](Nc1cc(F)cc(Cl)c1)C(=O)N[C@@H]1CCCN(c2ncnc3[nH]ncc23)C1` [Example 193], less than 0.1 µM.
For `O=C(CNc1ccccc1Sc1ccccc1)N[C@@H]1CCCN(c2ncnc3[nH]ccc23)C1` [Example 194] the value was less than 0.1 µM; for `CCN(CC)S(=O)(=O)c1ccccc1NCC(=O)N[C@@H]1CCCN(c2ncnc3[nH]ncc23)C1` [Example 195], less than 0.1 µM; for `CCN(C(C)C)S(=O)(=O)c1ccccc1NCC(=O)N[C@@H]1CCCN(c2ncnc3[nH]ncc23)C1` [Example 196], less than 0.1 µM.
Compound `CCC[C@@H](Nc1cc(F)cc(Cl)c1)C(=O)N[C@@H]1CCCN(c2ncnc3[nH]ccc23)C1` [Example 197] showed an IC50 of less than 0.1 µM.
For `CC1(C)CCCN(S(=O)(=O)c2ccccc2NCC(=O)N[C@@H]2CCCN(c3ncnc4[nH]ncc34)C2)C1` [Example 198] the value was less than 0.1 µM.
On to `CCCCOc1ccccc1NCC(=O)N[C@@H]1CCCN(c2ncnc3[nH]ccc23)C1` [Example 199], for which the IC50 is less than 0.1 µM.
As for `CC(C)(C)[C@@H](Nc1cc(F)cc(Cl)c1)C(=O)N[C@@H]1CCCN(c2ncnc3[nH]ncc23)C1` [Example 200], the figure is less than 0.1 µM; as for `CC(C)(C)[C@@H](Nc1cc(Cl)cc(Cl)c1)C(=O)N[C@@H]1CCCN(c2ncnc3[nH]ccc23)C1` [Example 202], less than 0.1 µM; as for `O=C(CNc1ccccc1S(=O)(=O)N1CCCC1)N[C@@H]1CCCN(c2ncnc3[nH]ccc23)C1` [Example 203], less than 0.1 µM.
As for `O=C(CNc1ccccc1Oc1ccccc1)N[C@@H]1CCCN(c2ncnc3[nH]ncc23)C1` [Example 204], the figure is less than 0.1 µM.
`O=C(CNc1ccccc1S(=O)(=O)N1CCCC1)N[C@@H]1CCCN(c2ncnc3[nH]ncc23)C1` [Example 205] gave an IC50 of less than 0.1 µM.
`C[C@H](O)[C@@H](Nc1cc(F)cc(Cl)c1)C(=O)N[C@@H]1CCCN(c2ncnc3[nH]ccc23)C1` [Example 206] yielded an IC50 of less than 0.1 µM.
For `CCN(C)S(=O)(=O)c1ccccc1NCC(=O)N[C@@H]1CCCN(c2ncnc3[nH]ccc23)C1` [Example 207] the value was less than 0.1 µM.
Consider `CCN(CC)S(=O)(=O)c1ccccc1NCC(=O)N[C@@H]1CCCN(c2ncnc3[nH]ccc23)C1` [Example 208], for which the half-maximal inhibitory concentration (IC50) is less than 0.1 µM.
As for `CC(C)[C@@H](Nc1cc(F)cc(Cl)c1)C(=O)N[C@@H]1CCCN(c2ncnc3[nH]ccc23)C1` [Example 209], the figure is less than 0.1 µM; as for `CC(C)c1ccccc1NCC(=O)N[C@@H]1CCCN(c2ncnc3[nH]ccc23)C1` [Example 210], less than 0.1 µM.
Compound `CN(C1CCCC1)S(=O)(=O)c1ccccc1NCC(=O)N[C@@H]1CCCN(c2ncnc3[nH]ncc23)C1` [Example 211] registered an IC50 of less than 0.1 µM.
As for `CC1CCN(S(=O)(=O)c2ccccc2NCC(=O)N[C@@H]2CCCN(c3ncnc4[nH]ncc34)C2)CC1` [Example 212], the figure is less than 0.1 µM; as for `CCN(C)S(=O)(=O)c1ccccc1NCC(=O)N[C@@H]1CCCN(c2ncnc3[nH]ncc23)C1` [Example 213], less than 0.1 µM; as for `CC1CCCCN1S(=O)(=O)c1ccccc1NCC(=O)N[C@@H]1CCCN(c2ncnc3[nH]ncc23)C1` (some centres unmarked) [Example 214], less than 0.1 µM.
As for `CCC[C@@H](Nc1cccc(Cl)c1)C(=O)N[C@@H]1CCCN(c2ncnc3[nH]ccc23)C1` [Example 215], the figure is less than 0.1 µM; as for `O=C(CNc1ccccc1S(=O)(=O)N1CCC(C(F)(F)F)CC1)N[C@@H]1CCCN(c2ncnc3[nH]ccc23)C1` [Example 217], less than 0.1 µM.
For the compound `CC(C)c1ccccc1NCC(=O)N[C@@H]1CCCN(c2ncnc3[nH]ncc23)C1` [Example 219], the IC50 was less than 0.1 µM.
For `CC1CCC(C)N1S(=O)(=O)c1ccccc1NCC(=O)N[C@@H]1CCCN(c2ncnc3[nH]ncc23)C1` (some centres unmarked) [Example 220] the value was less than 0.1 µM.
For `O=C(CNc1ccccc1OCCc1ccccc1)N[C@@H]1CCCN(c2ncnc3[nH]ccc23)C1` [Example 221] the value was less than 0.1 µM.
As for `O=C(CNc1ccccc1OC1CCCC1)N[C@@H]1CCCN(c2ncnc3[nH]ccc23)C1` [Example 222], the figure is less than 0.1 µM; as for `CN(C(=O)CNc1ccccc1)C1CCCN(c2ncnc3[nH]ccc23)C1` (centres unmarked) [Example 223], 0.1 to 0.999 µM; as for `CC1CC(C)CN(S(=O)(=O)c2ccccc2NCC(=O)N[C@@H]2CCCN(c3ncnc4[nH]ncc34)C2)C1` (some centres unmarked) [Example 224], less than 0.1 µM.
`CC[C@@H](Nc1cc(F)cc(Cl)c1)C(=O)N[C@@H]1CCCN(c2ncnc3[nH]ccc23)C1` [Example 225] had an IC50 of less than 0.1 µM.
The compound `C[C@@H](O)[C@@H](Nc1cc(F)cc(Cl)c1)C(=O)N[C@H]1CN(c2ncnc3[nH]ncc23)CC[C@@H]1C` [Example 226] yielded an IC50 of less than 0.1 µM.
For `O=C(CNc1ccccc1S(=O)(=O)N1CC2CCCC2C1)N[C@@H]1CCCN(c2ncnc3[nH]ncc23)C1` (some centres unmarked) [Example 227] the value was less than 0.1 µM; for `O=C(CNc1ccccc1S(=O)(=O)N1CCC(C(F)(F)F)CC1)N[C@@H]1CCCN(c2ncnc3[nH]ncc23)C1` [Example 228], less than 0.1 µM; for `CC1CCCC(C)N1S(=O)(=O)c1ccccc1NCC(=O)N[C@@H]1CCCN(c2ncnc3[nH]ncc23)C1` (some centres unmarked) [Example 229], less than 0.1 µM.
As for `O=C(N[C@@H](C(=O)N[C@@H]1CCCN(c2ncnc3[nH]ccc23)C1)C1CC1)c1ccccc1O` [Example 230], the figure is 0.1 to 0.999 µM; as for `O=C(N[C@@H]1CCCN(c2ncnc3[nH]ncc23)C1)[C@H](Nc1cccc(Cl)c1)C1CC1` [Example 231], less than 0.1 µM; as for `C[C@@H](Nc1cc(F)cc(Cl)c1)C(=O)N[C@@H]1CCCN(c2ncnc3[nH]ccc23)C1` [Example 232], less than 0.1 µM.
`C[C@H](O)[C@@H](Nc1cccc(Cl)c1)C(=O)N[C@@H]1CCCN(c2ncnc3[nH]ccc23)C1` [Example 233] returned an IC50 of less than 0.1 µM.
As for `CC(C)c1ccccc1N[C@@H](C(=O)N[C@@H]1CCCN(c2ncnc3[nH]ncc23)C1)C1CC1` [Example 234], the figure is 0.1 to 0.999 µM.
`O=C(CNc1ccccc1S(=O)(=O)c1ccc(C(F)(F)F)cc1)N[C@@H]1CCCN(c2ncnc3[nH]ncc23)C1` [Example 235] had an IC50 of less than 0.1 µM.
For `O=C(CNc1ccccc1Cl)N[C@@H]1CCCN(c2ncnc3[nH]ccc23)C1` [Example 236], the IC50 was less than 0.1 µM.
For the compound `Cc1cccc(NCC(=O)N[C@@H]2CCCN(c3ncnc4[nH]ccc34)C2)c1` [Example 237], the IC50 fell in the range of 0.1 to 0.999 µM.
For `C[C@@H](Nc1cccc(Cl)c1)C(=O)N[C@@H]1CCCN(c2ncnc3[nH]ccc23)C1` [Example 238] the value was less than 0.1 µM; for `CC(C)c1ccccc1N[C@@H](C(=O)N[C@@H]1CCCN(c2ncnc3[nH]ccc23)C1)[C@H](C)O` [Example 239], 0.1 to 0.999 µM.
As for `CN(C1CCCCC1)S(=O)(=O)c1ccccc1NCC(=O)N[C@@H]1CCCN(c2ncnc3[nH]ncc23)C1` [Example 240], the figure is less than 0.1 µM; as for `O=C(CNc1ccccc1Oc1ccccc1)N[C@@H]1CCCN(c2ncnc3[nH]ccc23)C1` [Example 241], less than 0.1 µM.
As for `O=C(CNc1ccccc1S(=O)(=O)N1CCOCC1)N[C@@H]1CCCN(c2ncnc3[nH]ncc23)C1` [Example 242], the figure is less than 0.1 µM.
